Each structure is given as a SMILES string.

Data set [1] in a line: Simulated gastrointestinal digestion (SGF then SIF), HPLC retention of 3,6,7-trimethyllumazine. The data set is classed as in vitro ADME. The conditions noted are these: for remaining amount of 3,6,7-trimethyllumazine: pure compound. The protocol: The simulated gastrointestinal digestion was carried out using a static model. The simulated gastric fluid (SGF) and the simulated intestinal fluid (SIF) were prepared in accordance with a global consensus protocol (Minekus et al 2014). The SGF has a pH 3 to mimic the fed-state of the stomach. When mixed with Manuka honey (or a honey solution), the final mixture contains 2000 U/mL of pepsin. The SIF has pH 7 to mimic the fed-state of the small intestine, containing 2 mg/mL of pancreatin (8×USP, or based on a protease activity of 200 U/mL) and 20 mM of porcine bile extract before use.
In the simulated gastric digestion, 2 g of Manuka honey was incubated in 2 mL of SGF at 37° C. under 95 rpm shaking for a period of 2 h (triplicates). At selected time points (0, 30, 60 and 120 min), a predetermined volume (0.1 mL) of the mixture was withdrawn for 3,6,7-trimethyllumazine analysis. The solution for analysis was kept on ice with an addition of 0.1 mL SIF (pH 7) to stop pepsin activity. As a control group, a pure 3,6,7-trimethyllumazine solution was treated in the same way for comparative purposes.
Following the 2 h gastric digestion, the resulting solution was mixed with SIF (pH 7) at a volume ratio of 1:1, to have a final mixture that contains 1 mg/mL of pancreatin and 10 mM of porcine bile extract. This mixture was incubated at 37° C. under 95 rpm shaking for 4 h (triplicates). At selected time points (0, 60, 120 and 240 min), a predetermined volume (0.1 mL) of the mixture was withdrawn for 3,6,7-trimethyllumazine concentration analysis. The pancreatin activity in the withdrawn solution was quenched by adding 5 mmol/L Pefabloc® (Egger et al 2019).
The gastric and intestinal digesta for 3,6,7-trimethyllumazine analysis was treated to remove insoluble fractions (e.g. pancreatin) before HPLC analysis. In brief, all samples were diluted with 0.1% formic acid and then centrifuged at 14,000 rpm for 10 min. Supernatant was taken for analysis. The amount of 3,6,7-trimethyllumazine at different time points was analysed using a reverse-phase HPLC system, which has been previously used to analyse 3,6,7-trimethyllumazine and leptosperin as reported in the literature (Bin Lin et al 2017). In brief, the samples were diluted 5 times in 0.1% v/v formic acid. A Hypersil GOLD column (150×2.1 mm, […]) was used as the stationary phase (25° C.), and the mobile phase will consist of 0.1% formic acid (phase A), and 80:20 acetonitrile: 0.1% formic acid (phase B). […] The signal of 3,6,7-trimethyllumazine was detected at 320 nm.

The test system of data set [2] is inactive MMP-9 (pro-MMP-9). The experiment in a line: Gelatin gel zymography, inactive MMP-9 band. The data set is classed as biochemical. The note with it: inactive MMP-9 (~47 kDa band); densitometry vs no inhibitor; n=5. The protocol:
(§1) Novex™ 10% Zymogram Plus (Gelatin) Protein Gels (15 wells) were purchased from Thermo Fisher Scientific Inc. (Auckland, New Zealand). All chemicals required for the zymogram analysis were also purchased from Thermo Fisher, these include Novex™ Sharp Pre-stained Protein Standard, Novex Tris-Glycine SDS sample buffer, Novex Tris-Glycine SDS running buffer, Novex Zymogram renaturing buffer and Novex Zymogram developing buffer. […] Gelatin gel zymography was performed as an independent technique to confirm the inhibition of MMP-9 from 3,6,7-trimethyllumazine. This technique uses a non-reducing SDS-PAGE (sodium dodecyl sulfate polyacrylamide gel electrophoresis) gel embedded with gelatin. Proteins are migrated and separated during electrophoresis. The SDS is removed after electrophoresis and the gel is then incubated with essential cofactors required for enzymatic activity. The embedded gelatin can be digested by MMP-9, resulting in clear bands on a dark blue background after staining with Coomassie blue dyes. The gelatinase activity is represented by band densitometry, which can be assessed with image analysis software. […]
(§2) After incubation, the gelatin gel was rinsed with water for three times (5 min each) under gentle agitation. […] MMP-9 activities were analysed using densitometry on ImageJ Version 1.52a. […]

The subject of data set [3] is active MMP-9. The experiment in a line: Gelatin gel zymography, active MMP-9 band. The data set is classed as biochemical. The conditions noted are these: active MMP-9 (~37 kDa band); densitometry vs no inhibitor; n=5. The protocol: as §1, §2

Consider `Cc1nc2[nH]c(=O)n(C)c(=O)c2nc1C` [3,6,7-trimethyllumazine], for which, in data set [1] (50% (w/w) Manuka honey solutions or pure compound directly exposed to digestive media), the “degradation during gastrointestinal digestion” value was “No significant degradation”. For the same compound, the “initial amount recovered in the digesta” value in data set [1] (from four Manuka honey samples, end of 2 h gastric plus 4 h intestinal digestion) was around 100%. Also, the “remaining amount of 3,6,7-trimethyllumazine” value in data set [1] (SGF, 0 h, mean ± SD, n=3) was 682 ± 90 ng/mL; in data set [1] (SGF, 0.5 h), 703 ± 57 ng/mL; in data set [1] (SGF, 1 h), 728 ± 28 ng/mL; in data set [1] (SGF, 2 h) it was 688 ± 72 ng/mL; in data set [1] (SIF, 0 h), 736 ± 6 ng/mL; in data set [1] (SIF, 1 h), 740 ± 12 ng/mL. Besides, the “remaining amount of 3,6,7-trimethyllumazine” value in data set [1] (SIF, 2 h) is listed as 732 ± 10 ng/mL; in data set [1] (SIF, 4 h), 730 ± 3 ng/mL. For the same compound, the “percentage inhibition of gelatinase activity” value was 17% in data set [2] and 31% in data set [3].

The values are drawn from patent US20230226065A1, “ANTI-INFLAMMATORY COMPOSITIONS, METHODS AND USES THEREOF” (COMVITA LIMITED, priority 2020, published 2023).
